The source of these data is patent US20230210999A1, “TARGETED PROTEASE DEGRADATION (TED) PLATFORM” (EUBULUS BIOTHERAPEUTICS INC., priority 2020, published 2023).

Structures are written as SMILES. A value given as a limit tells only on which side of the number the result lay.

Experiment [1] relates to MOL4-4 cells. Kind of experiment: Cell proliferation experiment, MOL4-4. Type of experiment: cell-based. Conditions: Homo sapiens, 72 h, read-out: Inhibitory activity IC50 of tested compounds on MOL4-4 cells. As for the experimental part: (§1) Reagents: RPMI-1640 medium, McCoy's 5A medium, IMDM medium, MEM medium, L-15 medium, fetal bovine serum. Penicillin-Streptomycin double antibody, trypsin, etc., 2-mercaptoethanol, NEAA, pyruvate, etc.
(§2) The cells were cultured in conventional ways, and the cells should be passed at least 2 generations before plating. Cells at the logarithmic growth phase were collected, prepared into single cell suspensions and counted. The concentration of cells was adjusted to the desired concentration, and cells were inoculated into a 96-well cell culture plate at 100 μl per well. 100 μL of complete medium of the test compound were added to each well, set up 2 duplicate wells for each concentration, and diluted with a 5-fold gradient, and continued to culture for 72 h. All cells were subjected to IC50 test for corresponding samples. The experimental results are shown in Test Example 4.
(§3) The fluorescence intensity of each well was detected using the Alarm blue method, and IC50 was calculated.
(§4) IC50 was calculated according to the following formula:
(§5) Y=Max+(Min−Max)/[1+(X/IC50)×Slope]
(§6) wherein Min, Max and Slope represent the minimum, maximum and slope respectively.

In experiment [2] the test system is MV4;11 cells. Kind of experiment: Cell proliferation experiment (Alamar blue, 72 h), MV4;11. Conditions: Homo sapiens, MV4-11, 72 h, MV4;11 cells, 72 h; read-out: Inhibitory activity IC50 of tested compounds on MV4;11 cells. In kind it is cell-based, human. The method in brief:
(§7)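 Alamar blue fluorescence after 72 h of compound exposure; IC50 from 4-parameter fit (Min, Max, Slope). Cells passaged ≥2 times, log-phase, 96-well, duplicate wells, 5-fold serial dilutions.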
(In general: The colour change of resazurin is a common sign of viable cells or microbes.)

The subject of experiment [3] is THP-1 cells. Kind of experiment: Cell proliferation experiment, THP-1. The conditions noted are these: Homo sapiens, 72 h, read-out: Inhibitory activity IC50 of tested compounds on THP-1 cells. Type of experiment: cell-based. As to the method: as §1, §2, §3, §4, §5, §6
In experiment [4] the test system is HL-60 cells. The experiment can be described thus: Cell proliferation experiment, HL-60. In kind it is cell-based. The conditions noted are these: Homo sapiens, 72 h, read-out: Inhibitory activity IC50 of tested compounds on HL-60 cells. As to the method: as §1, §2, §3, §4, §5, §6
The test system of experiment [5] is MDA-MB-231 cells. Kind of experiment: Cell proliferation experiment, MDA-MB-231. Type of experiment: cell-based, human. Conditions: Homo sapiens, MDA-MB-231, 72 h, MDA-MB-231 cells, 72 h; read-out: Inhibitory activity IC50 of tested compounds on MDA-MB-231 cells. Summed up:
as §7

Experiment [6] relates to U-87MG cells. The experiment can be described thus: Cell proliferation experiment, U-87MG. In kind it is cell-based. The conditions noted are these: Homo sapiens; U-87MG cells, 72 h; read-out: Inhibitory activity IC50 of tested compounds on U-87MG cells. Summed up:
as §7

Experiment [7] relates to Daudi cells. Kind of experiment: Cell proliferation experiment, Daudi. Type of experiment: cell-based, human. Conditions: Homo sapiens, Daudi, 72 h, Daudi cells, 72 h; read-out: Inhibitory activity IC50 of tested compounds on Daudi cells. Summed up: as §7
The test system of experiment [8] is HT-29 cells. Kind of experiment: Cell proliferation experiment, HT-29. The conditions noted are these: Homo sapiens; HT-29 cells, 72 h; read-out: Inhibitory activity IC50 of tested compounds on HT-29 cells. In kind it is cell-based. Summed up: as §7
For experiment [9], the system named is HUVEC cells. The experiment can be described thus: Cell proliferation experiment, HUVEC. In kind it is cell-based. The conditions noted are these: Homo sapiens, 72 h, read-out: Inhibitory activity IC50 of tested compounds on HUVEC cells. As for the experimental part: as §1, §2, §3, §4, §5, §6
Experiment [10] relates to Hela cells. Kind of experiment: Cell proliferation experiment, Hela. Conditions: Homo sapiens, 72 h, read-out: Inhibitory activity IC50 of tested compounds on Hela cells. Type of experiment: cell-based. As for the experimental part: as §1, §2, §3, §4, §5, §6
Experiment [11] concerns NCIH82 cells. Kind of experiment: Cell proliferation experiment, NCI-H82. In kind it is cell-based, human. Conditions: Homo sapiens, NCI-H82, 72 h, NCIH82 cells, 72 h; read-out: Inhibitory activity IC50 of tested compounds on NCIH82 cells. Summed up: as §7

Broadly, the IC50 is the midpoint of a concentration-inhibition curve.

Consider `CC[C@@H]1C(=O)N(C)c2cnc(Nc3ccc(C(=O)NCCCOCCOCCCN(C)CCC#Cc4cccc5c4CN(C4CCC(=O)NC4=O)C5=O)cc3OC)nc2N1C1CCCC1` (some centres unmarked) [Compound 883], for which the IC50 in experiment [1] is no more than 100 nM; in [2], no more than 100 nM; in experiment [3] it was no more than 1000 nM; in [4], no more than 1000 nM; in experiment [5], no more than 500 nM; in [6], no more than 100 nM. In addition, the IC50 in experiment [7] is no more than 100 nM; in experiment [8] it was 300 to 1000 nM; in experiment [9], no more than 1000 nM; in [10], no more than 1000 nM; in experiment [11] it was no more than 1000 nM.
For `CC[C@@H]1C(=O)N(C)c2cnc(Nc3ccc(C(=O)NCCCN(C)CCOCCCC#Cc4cccc5c4CN(C4CCC(=O)NC4=O)C5=O)cc3OC)nc2N1C1CCCC1` (some centres unmarked) [Compound 884], the IC50 in experiment [1] was no more than 100 nM; in experiment [2], no more than 100 nM; in [3], no more than 1000 nM; in experiment [4] it was no more than 1000 nM; in experiment [5], no more than 500 nM; in [6] it was no more than 100 nM. The IC50 is no more than 100 nM in [7]; 300 to 1000 nM in experiment [8]; no more than 1000 nM in experiment [9]; no more than 1000 nM in experiment [10]; no more than 1000 nM in [11].
Regarding `CC[C@@H]1C(=O)N(C)c2cnc(Nc3ccc(C(=O)NCCCOCCNCCC#Cc4cccc5c4CN(C4CCC(=O)NC4=O)C5=O)cc3OC)nc2N1C1CCCC1` (some centres unmarked) [Compound 888], the half-maximal inhibitory concentration (IC50) in experiment [1] is no more than 100 nM; in [2] it was no more than 100 nM; in experiment [3], no more than 1000 nM; in [4] it was no more than 1000 nM; in experiment [5], no more than 500 nM; in [6], 100 to 500 nM. Further, the IC50 in experiment [7] was no more than 100 nM; in experiment [8] it was 300 to 1000 nM; in experiment [9], no more than 1000 nM; in [10], no more than 1000 nM; in [11] it was no more than 1000 nM.
`CC[C@@H]1C(=O)N(C)c2cnc(Nc3ccc(C(=O)NC4CCC(N5CCN(CCC#Cc6cccc7c6CN(C6CCC(=O)NC6=O)C7=O)CC5)CC4)cc3OC)nc2N1C1CCCC1` (some centres unmarked) [Compound 889]: the IC50 in experiment [1] is no more than 100 nM; in [2], no more than 100 nM; in [3] it was no more than 1000 nM; in experiment [4] it was no more than 1000 nM; in experiment [5], no more than 500 nM; in experiment [6] it was no more than 100 nM. In addition, the IC50 was no more than 100 nM in experiment [7]; no more than 300 nM in [8]; no more than 1000 nM in experiment [9]; no more than 1000 nM in experiment [10]; no more than 1000 nM in experiment [11].
